In PMC11078746 (Nature, 2024):
Where two headings read alike, the source gives them in different places.

Legend:
SNUC4 = assay: CFA 10-14 day clonogenic assay; assay type: cell-based; conditions: Homo sapiens, SNU-C4
LS513 = assay: 4 day proliferation assay (CellTiter-Glo); conditions: Homo sapiens, LS-513, 96 h, read-out: 4 day assay GI50
LS180 = assay: CFA 10-14 day clonogenic assay; assay type: cell-based; conditions: Homo sapiens
LIM2405 = assay: 4 day proliferation assay (CellTiter-Glo); conditions: Homo sapiens, 96 h, read-out: 4 day assay GI50
SW48 = assay: cells; conditions: Homo sapiens, SW48, read-out: CFA 10-14 day assay GI50
RecQ1 = molecular target: T1, RecQ1 (Homo sapiens, UniProt P46063); assay: RecQ selectivity ATPase assay; assay type: biochemical
T1 construct: human RecQ1-D1D2 (UniProt: P46063, Asp62–Ser482); His tag (N); made in house; host or cells: E. coli BL21(DE3), by the 'analogous procedure'
Method: (§1) DNA sequence allowing expression of human BLM-D1D2RH (UniProt P54132: Lys640–Gly1298) fused at the amino-terminal end to His tag followed by TEV-cleavage site, was inserted into a pET-derived vector. Protein expression was performed in BL21(DE3) cells after IPTG induction. Cells were collected and resuspended in lysis buffer (50 mM NaH2PO4, 300 mM NaCl, 1 mM TCEP, 20 mM imidazole, pH 8.0) supplemented with 2 mM MgCl2, benzonase and 0.5 mM AEBSF. Cells were lysed with an Emulsiflex C3 homogenizer. After ultracentrifugation, the lysate was loaded onto a HisTrap HP column. Bound protein was eluted with an imidazole gradient in lysis buffer. The amino-terminal tag was cleaved with TEV protease. Cleaved protein was loaded on Resource S ion-exchange column and eluted with a NaCl gradient in IEX buffer (20 mM Tris, 1 mM TCEP, 10% glycerol, 20 mM NaCl, pH 7.4). As a final step, BLM-D1D2RH protein was concentrated and loaded onto the Superdex 75 gel-filtration column pre-equilibrated with SEC buffer (50 mM Tris, 150 mM NaCl, 10% glycerol, pH 7.4). Eluted target protein was concentrated and frozen on dry ice. An analogous procedure was used for the expression and purification of human RecQ1-D1D2 (UniProt: P46063, Asp62–Ser482) and Human RecQ5-D1D2 (UniProt: O94762, Asp11–Trp453) proteins.
(§2) We used an ADP-Glo assay kit (Promega) to monitor ATP hydrolysis. A 45-oligonucleotide with the following sequence: […], referred to as FLAP26, as described previously[45] was purchased from IDT (Integrated DNA Technologies) and used as a DNA substrate. […] The reaction was started by addition of 2.5 μl of ssDNA substrate at 0.4 nM and incubated for 30 min at room temperature. The reaction was stopped with the addition of 5 μl of the first ADP-Glo reagent and incubated for 1 h to remove the excess amount of ATP. Then, 10 μl of ATP detection reagent was added and incubated for an additional hour before reading. The luminescence output was recorded using the Pherastar reader, with a 5 min delay before reading. Each concentration of compounds was tested in duplicates in the assay plate. The compound potency (IC50 value) was determined using custom software (Novartis Helios software application) with a four-parameter sigmoid Hill-curve model. After normalization of activity values for the wells to percentage inhibition (percentage inhibition = [(high control activity − sample activity)/(high control activity − low control activity)] × 100), IC50 fitting was performed from the duplicate determinations present on each plate.
(§3) The same ATPase assay protocol was used with the three other RecQ protein constructs to assess the selectivity over WRN. Time-course experiments were performed to determine the best enzymatic assay conditions for each RecQ protein. The experiments were run as described above with 10 nM RecQ1 protein construct with 10 nM ssDNA substrate, 2 nM BLM protein construct with 0.2 nM ssDNA substrate and 0.5 nM RecQ5 protein construct with 2 nM ssDNA substrate, respectively.

BLM = molecular target: T2, BLM (Homo sapiens, UniProt P54132); assay: RecQ selectivity ATPase assay; assay type: biochemical
T2 construct: human BLM-D1D2RH (UniProt P54132: Lys640–Gly1298); His tag (N, cleaved yes); made in house; host or cells: E. coli BL21(DE3)
Method: as §1, §2, §3

RecQ5 = molecular target: T3, RecQ5 (Homo sapiens, UniProt O94762); assay: RecQ selectivity ATPase assay; assay type: biochemical
T3 construct: Human RecQ5-D1D2 (UniProt: O94762, Asp11–Trp453); His tag (N); made in house; host or cells: E. coli BL21(DE3), by the 'analogous procedure'
Method: as §1, §2, §3

KM12 = assay: CFA 10-14 day clonogenic assay; assay type: cell-based; conditions: Homo sapiens
DLD-1 (HCT15) = assay: 4 day proliferation assay (CellTiter-Glo); conditions: Homo sapiens, 96 h, read-out: 4 day assay GI50
SNUC2A = assay: 4 day proliferation assay (CellTiter-Glo)
IM95 = assay: CFA 10-14 day clonogenic assay; assay type: cell-based; conditions: Homo sapiens

T3 sequence (O94762 11-453): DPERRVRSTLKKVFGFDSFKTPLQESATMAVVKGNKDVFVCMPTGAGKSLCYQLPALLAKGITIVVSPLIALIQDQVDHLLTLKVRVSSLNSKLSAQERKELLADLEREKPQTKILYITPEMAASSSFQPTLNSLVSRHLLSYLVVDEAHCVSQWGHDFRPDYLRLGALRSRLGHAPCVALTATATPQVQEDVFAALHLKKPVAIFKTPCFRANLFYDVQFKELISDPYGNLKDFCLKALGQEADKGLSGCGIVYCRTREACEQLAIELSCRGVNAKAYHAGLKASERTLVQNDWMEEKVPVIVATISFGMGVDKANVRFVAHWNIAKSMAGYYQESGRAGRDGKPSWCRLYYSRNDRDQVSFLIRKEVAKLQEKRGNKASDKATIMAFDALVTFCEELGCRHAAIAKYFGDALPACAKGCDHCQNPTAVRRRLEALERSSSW
T1 sequence (P46063 62-482): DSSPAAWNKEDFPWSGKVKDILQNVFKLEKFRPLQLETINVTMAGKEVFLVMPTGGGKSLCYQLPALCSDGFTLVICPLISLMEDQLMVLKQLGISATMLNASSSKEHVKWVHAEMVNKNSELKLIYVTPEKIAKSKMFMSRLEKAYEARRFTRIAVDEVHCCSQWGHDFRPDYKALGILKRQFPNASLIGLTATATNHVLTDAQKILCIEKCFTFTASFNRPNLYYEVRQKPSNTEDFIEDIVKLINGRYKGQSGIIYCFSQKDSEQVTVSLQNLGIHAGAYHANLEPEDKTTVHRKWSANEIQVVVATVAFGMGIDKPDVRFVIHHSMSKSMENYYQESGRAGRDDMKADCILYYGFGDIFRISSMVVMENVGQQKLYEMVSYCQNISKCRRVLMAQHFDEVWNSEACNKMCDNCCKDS
T2 sequence (P54132 640-1298): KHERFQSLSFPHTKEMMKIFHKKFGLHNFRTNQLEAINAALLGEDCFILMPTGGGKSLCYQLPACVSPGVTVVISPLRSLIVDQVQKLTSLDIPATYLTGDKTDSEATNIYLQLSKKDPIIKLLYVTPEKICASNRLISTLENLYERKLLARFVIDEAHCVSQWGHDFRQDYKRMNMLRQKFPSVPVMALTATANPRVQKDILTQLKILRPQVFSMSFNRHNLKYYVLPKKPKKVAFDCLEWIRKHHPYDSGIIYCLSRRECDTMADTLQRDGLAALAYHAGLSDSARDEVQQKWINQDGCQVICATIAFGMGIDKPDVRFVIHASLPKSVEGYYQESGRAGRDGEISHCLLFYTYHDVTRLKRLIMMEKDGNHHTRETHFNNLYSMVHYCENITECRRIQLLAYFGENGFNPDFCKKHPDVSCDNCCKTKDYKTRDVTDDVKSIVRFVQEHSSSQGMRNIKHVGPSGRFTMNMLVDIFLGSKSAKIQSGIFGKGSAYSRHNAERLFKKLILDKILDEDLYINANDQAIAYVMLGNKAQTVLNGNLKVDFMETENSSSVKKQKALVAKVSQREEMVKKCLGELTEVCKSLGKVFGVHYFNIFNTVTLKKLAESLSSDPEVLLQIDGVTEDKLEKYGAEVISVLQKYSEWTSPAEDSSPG

## CCc1c(N2CCN(C(=O)c3ncnc(C)c3O)CC2)c(=O)n2nc(C3=CCOCC3)nc2n1CC(=O)Nc1ccc(C(F)(F)F)cc1Cl [HRO761]
SNUC4
  GI50: 0.035 µM
LS513
  GI50: ≥ 10 µM
LS180
  GI50: 0.131 µM
LIM2405
  GI50: 1.53 µM
SW48
  GI50: 0.031 µM
RecQ1
  IC50: > 100 µM
BLM
  IC50: > 100 µM
RecQ5
  IC50: > 100 µM
KM12
  GI50: 0.1 µM
DLD-1 (HCT15)
  GI50: ≥ 10 µM
SNUC2A; Homo sapiens, 96 h, read-out: 4 day assay GI50, SNUC2A
  GI50: 0.641 µM
SNUC2A; read-out: 4 day assay GI50, SNUC2A
  GI50: 0.542 µM
Ames
  Ames: Negative
IM95
  GI50: 0.255 µM
